Test results taken from patent US6147097A, “Imidazole derivatives as anti-HIV agents” (Shionogi & Co., Ltd., priority 1994, dated 2000).
≈ marks a conversion by molar mass, not a printed value. Like-named read-outs stand apart in the source and are kept apart here.

Legend:
[1] = cytotoxicity in MT-4 cells (MTT, culture medium in place of HIV); assay type: cell-based; conditions: human
Procedure: (§1) The anti-HIV activity of each of the compounds produced in Examples was assayed by the following procedures. (1) Human T cell line MOLT-4 clone 8 persistently infected by HIV (HTLV-IIIB strain) was cultured in an RPMI-1640 medium supplemented with 10% fetal calf serum, the culture supernatant was filtered, and the titer of virus was determined; the culture supernatant was stored at -80° C. On the other hand, the test compound was diluted with the above culture medium to predetermined concentrations and distributed in 50 μl aliquots into a 96-well microtiter plate. Then, d suspension of MT-4 cells was added in 100 μl aliquots (3.5×10^4 cells per well) and then the above HIV-containing supernatant diluted with the above culture medium was added, 50 μl (60 pfu (plaque forming units)) per well. (2) The plate was incubated in a CO2 incubator at 37° C. for 5 days. Then, 30 μl/well of 3-(4,5-dimethyl thiazol-2-yl)-2,5-diphenyltetrazolium bromide (MTT) (5 mg/ml PBS) was added and the incubation was further continued for 1 hour. The surviving cells reducing MTT yield precipitation of formazan. Therefore, 150 μl portions of the culture supernatant were removed from all wells and, instead, 150 μl of a solution (10% Triton X-100 and 0.4% (v/v) HCl-added isopropyl alcohol) was added. The plate was shaken on a plate mixer to dissolve the formazan. The OD of formazan was measured with a microreader at 560 nm arid 690 nm (reference wavelength) and the result was compared with that of control.
The cytotoxicity of each of the compounds produced in Examples was assayed. In place of the HIV-containing supernatant (the virus suspension) in (1) in Test Example 1, 50 μl of the culture medium was added to each well, and the cytotoxicity was determined in the same manner as that for (2) in Test Example 1.

HIV (HTLV-IIIB strain) = assay: microbe, parasite or virus in culture; assay type: cell-based; conditions: Human immunodeficiency virus 1, IIIB, MT4, 120 h
Procedure: as §1, with “(1) Human T cell line MOLT-4 clone 8 persistently infected by HIV (HTLV-IIIB strain) was cultured in an RPMI-1640 medium supplemented with 10% fetal calf serum, the culture supernatant was filtered, and the titer of virus was determined; the culture supernatant was stored at -80° C.” left out, “formazan.” for “formazan. The OD of formazan was measured with a microreader at 560 nm arid 690 nm (reference wavelength) and the result was compared with that of control.”

[2] = biological target: T1, purified recombinant HIV-1 reverse transcriptase (Human immunodeficiency virus type 1 group M subtype B, UniProt P04585); assay: reverse transcriptase inhibition, poly(rA)/(dT) template primer, [3H]dTTP uptake; assay type: biochemical
T1 construct: purified recombinant HIV-1 reverse transcriptase; made in house; host or cells: Escherichia coli
Procedure: The reverse transcriptase activity of each of the compounds synthesized in Examples was assayed by the following procedures.
Using the purified recombinant HIV-1 reverse transcriptase RT, E.C. 2.7.7.49) obtained by expression in Escherichia Coli, a 96-well plate assay system was established for assaying a large number of samples. The RT inhibitory activity was determined as follows. To 11 μl of a solution of the test inhibitor in water or MSO was added 100 μl of a reaction mixture (0.1 unit/100 μl RT, 50 mM Tris-HCl pH 8.3, 150 mM KCl, 10 mM MgCl2, 3 mM dithiothreitol, 0.1% Nonidet P-40, 10 μg/ml. poly(rA) and 10 μg/ml (dT)12-1.8 as template and primer, and 4 μM dTTP, 1 μCi/100 μl [^3 H]dTTP as substrate) and the mixture was incubated at 37° C. for 1 hour and, then, immediately cooled on ice. Using a cell harvester, the reaction mixture was transferred to a DEAE-filter mat (LKB-Pharmacia). Then, using the wash line of the cell harvester, the cells were washed twice with 5% Na2 HPO4 /H2 O and once with water and dried at 95° C. for 15 minutes. […] The inhibitory activity was expressed in percent inhibition relative to the uptake on water or DMSO control.

[3] = MT-4 cells, 60 pfu HIV per well, 37° C., 5 days, MTT, Tables 1 and 2, read-out: EC50
[4] = MT-4 cells, no virus, 37° C., 5 days, MTT, Table 3, read-out: CC50

Structure (SMILES)	CC50 at 120 h ([1]; mt-4 cells)	EC50 (HIV (HTLV-IIIB strain); [3])	IC50 [2]	EC50 (HIV (HTLV-IIIB strain))	CC50 at 120 h [1, 4]	IC50 ([2]; read-out: RT IC50, pH 8.3, 37° C., 1 hour, Tables 5 and 6)
CC(C)c1nc(CCCO)n(C)c1Sc1cc(Cl)cc(Cl)c1 [Compound 137a, 3-(5-(3,5-dichlorophenylthio)-4-isopropyl-1-methyl-1H-imidazol-2-yl)-propan-1-ol]	6.3 to 12.5 µg/mL (≈ 17.5 to 34.8 µM)	0.008 µg/mL (≈ 0.0223 µM)	5.57 µM			
CC(C)c1nc(COC(N)=O)n(C)c1Sc1cc(Cl)cc(Cl)c1 [Compound I-41, 2-carbamoyloxymethyl-5-(3,5-dichlorophenylthio)-4-isopropyl-1-methyl-1H-imidazole]	8.5 µg/mL (≈ 22.7 µM)		1.34 µM	0.016 µg/mL (≈ 0.0427 µM)		
Cc1cc(C)cc([S+]([O-])c2c(C(C)C)nc(C)n2C)c1 (stereo not drawn) [Compound I-104, 5-(3,5-dimethylphenylsulfinyl)-4-isopropyl-1,2-dimethyl-1H-imidazole]		1 to 10 µg/mL (≈ 3.44 to 34.4 µM)	> 344 µM		10 to 100 µg/mL (≈ 34.4 to 344 µM)	
CC(C)c1nc(COC(N)=O)n(CCOC(N)=O)c1Sc1cc(Cl)cc(Cl)c1 [Compound I-134, 1-(2-carbamoyloxyethyl)-2-carbamoyloxymethyl-5-(3,5-dichlorophenylthio)-4-isopropyl-1H-imidazole]	12.5 to 25 µg/mL (≈ 27.9 to 55.9 µM)	0.0013 µg/mL (≈ 0.00291 µM)	1.54 µM			
CC(=N)NCc1nc(C(C)C)c(Sc2cc(Cl)cc(Cl)c2)n1C [Compound I-84]		1 µg/mL (≈ 2.69 µM)	> 269 µM		1 to 10 µg/mL (≈ 2.69 to 26.9 µM)	
CC(C)c1nc(CO)n(CCCCc2ccccc2)c1Sc1cc(Cl)cc(Cl)c1 [Compound I-123, 5-(3,5-dichlorophenylthio)-2-hydroxymethyl-4-isopropyl-1-(4-phenylbutyl)-1H-imidazole]	12.5 µg/mL (≈ 27.8 µM)	0.06 µg/mL (≈ 0.133 µM)	77.4 µM			
CC(C)c1nc(CCCOC(N)=O)n(Cc2ccncc2)c1Sc1cc(Cl)cc(Cl)c1 [Compound I-150, 2-(3-carbamoyloxypropyl)-5-(3,5-dichlorophenylthio)-4-isopropyl-1-(pyridin-4-yl)methyl-1H-imidazole]	6.3 to 12.5 µg/mL (≈ 13.1 to 26.1 µM)	0.008 µg/mL (≈ 0.0167 µM)	1.88 µM			
CCn1c(COC(N)=O)nc(C(C)C)c1Sc1cccc(F)c1 [Compound I-57, 2-carbamoyloxymethyl-1-ethyl-5-(3-fluorophenylthio)-4-isopropylethyl-1H-imidazole]				0.0005 to 0.001 µg/mL (≈ 0.00148 to 0.00296 µM)	25 to 50 µg/mL (≈ 74.1 to 148 µM)	0.119 µM
CC(C)c1c(Sc2cccc(Cl)c2)nc(CO)n1C [Compound I-38, [4-(3-chlorophenylthio)-5-isopropyl-1-methyl-1H-imidazol-2-yl]methanol]		6.3 µg/mL (≈ 21.2 µM)	273 µM		12.5 to 25 µg/mL (≈ 42.1 to 84.2 µM)	
CC(=O)Cn1c(CO)nc(C(C)C)c1Sc1cc(Cl)cc(Cl)c1 [Compound I-32]		0.06 µg/mL (≈ 0.161 µM)	7.23 µM		10 to 100 µg/mL (≈ 26.8 to 268 µM)	
CC(C)c1nc(COC(N)=O)n(Cc2ccccc2)c1Sc1cccc([N+](=O)[O-])c1 [Compound I-47, 1-benzyl-2-carbamoyloxymethyl-4-isopropyl-5-(3-nitrophenylthio)-1H-imidazole]			2.3 µM	0.002 µg/mL (≈ 0.00469 µM)	6.3 to 12.5 µg/mL (≈ 14.8 to 29.3 µM)	
CC(C)c1nc(COC(N)=O)n(Cc2cnc3ccccc3c2)c1Sc1cc(Cl)cc(Cl)c1 [Compound I-128, 2-carbamoyloxymethyl-5-(3,5-dichlorophenylthio)-4-isopropyl-1-(quinolin-3-ylmethyl)-1H-imidazole]	> 100 µg/mL	< 0.008 µg/mL	5.38 µM			
CC(C)c1nc(COC(N)=O)n(C)c1Sc1cccc(Cl)c1 [Compound I-42, 2-carbamoyloxymethyl-5-(3-chlorophenylthio)-4-isopropyl-1-methyl-1H-imidazole]	8 µg/mL (≈ 23.5 µM)		5 µM	0.07 µg/mL (≈ 0.206 µM)		
CCn1c(COCCOC(N)=O)nc(C(C)C)c1Sc1cc(Cl)cc(Cl)c1 [Compound I-63, 2-(2-carbamoyloxyethoxy)methyl-5-(3,5-dichlorophenylthio)-1-ethyl-4-isopropyl-1H-imidazole]		0.25 µg/mL (≈ 0.578 µM)	10.9 µM		12.5 µg/mL (≈ 28.9 µM)	
